Measurements published in ChEMBL document CHEMBL1201862, “PubChem BioAssay data set” (2004).
Calls of active or inactive are those of the source.

Assays:
Ephrin type-A receptor 4 = Ephrin type-A receptor 4 (Mus musculus, UniProt Q03137); assay: EphA4 ligand-binding antagonists – biochemical, colorimetric, mouse EphA4, primary screen (AID 689); type: functional
cells [1] = assay: cells
[2] = NIH3T3 cell viability loss – ATP luminescence, mouse fibroblasts, counter-screen, dose response (AID 2010); type: functional, cell-based;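 note: cells exposed to compound for about 90 hours before reading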
[3] = Trypanosoma cruzi growth suppression in host cells – NIH3T3 host cells, beta-gal luminescence, confirmation (AID 2044); type: functional, cell-based;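 note: intracellular parasites grown in NIH/3T3 mouse fibroblasts as host cells; luminescent beta-galactosidase reporter signal from transgenic T. cruzi replicating inside host cells; inhibitors lower the luminescence signal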
Caspase-6 = Caspase-6 (Homo sapiens, UniProt P55212); assay: inhibition of CASP6 peptide cleavage – biochemical, VEID-R110 fluorescence, cherry-pick, dose response (AID 720632)
[4] = target: T1, Zinc finger protein mex-5 (Caenorhabditis elegans, UniProt Q9XUB2); assay: potency of MEX-5 RNA-binding blockers – biochemical, C. elegans, fluorescence polarization, dose response (AID 1960)
T1 sequence (Q9XUB2 whole entry): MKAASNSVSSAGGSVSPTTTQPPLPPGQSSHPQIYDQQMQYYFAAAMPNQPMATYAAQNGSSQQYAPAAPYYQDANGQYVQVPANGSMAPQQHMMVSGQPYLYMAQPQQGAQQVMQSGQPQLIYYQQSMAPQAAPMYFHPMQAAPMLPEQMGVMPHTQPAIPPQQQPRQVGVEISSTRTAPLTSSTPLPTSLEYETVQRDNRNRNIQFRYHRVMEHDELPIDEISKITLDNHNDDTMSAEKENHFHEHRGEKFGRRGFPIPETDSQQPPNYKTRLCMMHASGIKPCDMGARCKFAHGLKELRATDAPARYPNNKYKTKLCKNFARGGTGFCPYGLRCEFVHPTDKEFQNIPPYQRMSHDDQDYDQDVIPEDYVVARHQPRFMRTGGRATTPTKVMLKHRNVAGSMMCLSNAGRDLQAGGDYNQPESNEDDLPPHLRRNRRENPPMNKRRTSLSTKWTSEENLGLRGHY

[5] = target: T2, RNA-binding protein pos-1 (Caenorhabditis elegans, UniProt G5EF15); assay: disruptors of C. elegans POS-1 RNA interaction – biochemical, fluorescence polarization, dose response (AID 1964);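 note: purified POS-1 fused to maltose binding protein made in E. coli; potency of compounds blocking POS-1 binding to fluorescent RNA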
T2 sequence (G5EF15 whole entry): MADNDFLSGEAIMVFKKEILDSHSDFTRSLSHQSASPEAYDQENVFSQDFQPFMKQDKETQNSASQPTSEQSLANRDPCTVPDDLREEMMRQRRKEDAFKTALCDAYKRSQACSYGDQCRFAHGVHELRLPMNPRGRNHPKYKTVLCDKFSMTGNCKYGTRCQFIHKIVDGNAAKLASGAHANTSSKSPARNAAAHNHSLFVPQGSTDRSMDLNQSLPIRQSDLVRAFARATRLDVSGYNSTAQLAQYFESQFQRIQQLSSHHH

[6] = viability of PTEN-deleted HCT116 cells – cell-based, HCT116 PTEN knockout, dose response (AID 1047); type: functional;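 note: HCT116 colon tumor cells with PTEN knocked out; cells exposed to compound for 60 hours before readout; potency for loss of cell viability measured by luminescence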
[7] = viability of HCT116 lacking mutant beta-catenin – cell-based, human colon tumor, dose response (AID 1045); type: functional;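 note: HCT116 colon tumor cells with beta catenin knocked out; cells exposed to compound for 60 hours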
[8] = A cytotoxicity screen of small molecule inhibitors of the PhoP region in Salmonella typhi identified in the primary screen. [Related pubchem assays: 1850, 1864, 1985 ]; type: functional
[9] = target: T3, Oxysterols receptor LXR-beta (Homo sapiens, UniProt P55055); type: functional, cell-based;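 note: Cell-based luminescence dose-response assay of agonist activity at LXR, run as a confirmatory counterscreen to a daf-12 agonist screen; HEK293 cells with Gal4-LXR fusion and GAL4-driven luciferase reporter; agonist potency from rising luciferase signal of a Gal4-LXR reporter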
T3 sequence (P55055 whole entry): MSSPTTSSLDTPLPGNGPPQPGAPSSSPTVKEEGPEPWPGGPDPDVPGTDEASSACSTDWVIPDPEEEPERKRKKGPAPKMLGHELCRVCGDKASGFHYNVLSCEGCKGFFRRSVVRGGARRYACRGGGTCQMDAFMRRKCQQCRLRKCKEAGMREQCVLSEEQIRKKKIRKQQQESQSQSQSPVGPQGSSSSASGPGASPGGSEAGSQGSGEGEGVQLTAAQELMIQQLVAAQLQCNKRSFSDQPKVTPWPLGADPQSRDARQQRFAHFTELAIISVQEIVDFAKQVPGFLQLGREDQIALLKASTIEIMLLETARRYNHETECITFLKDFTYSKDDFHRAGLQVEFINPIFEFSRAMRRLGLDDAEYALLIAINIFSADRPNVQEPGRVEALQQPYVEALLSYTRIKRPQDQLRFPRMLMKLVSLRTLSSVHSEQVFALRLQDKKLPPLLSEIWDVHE

cells [10] = assay: cells; remark: listed apart in the source
Kallikrein-7 = Kallikrein-7 (Homo sapiens, UniProt P49862); assay: Fluorescence Intensity-based biochemical primary high throughput dose response assay to identify activators of kallikrein-7 (K7) zymogen.
Cytochrome P450 3A4 = Cytochrome P450 3A4 (Homo sapiens, UniProt P08684); details: Potency;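 note: confirmatory qHTS run detecting inhibitors and substrates of CYP3A4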
[11] = microbe, parasite or virus in culture; type: functional; details: Mycobacterium tuberculosis
[12] = M. tuberculosis growth inhibition, HTS (AID 449762); type: functional
[13] = M. tuberculosis H37Rv growth inhibitors, H37Rv strain (AID 1626); type: functional

Chain of Ephrin type-A receptor 4 (Q03137 whole entry): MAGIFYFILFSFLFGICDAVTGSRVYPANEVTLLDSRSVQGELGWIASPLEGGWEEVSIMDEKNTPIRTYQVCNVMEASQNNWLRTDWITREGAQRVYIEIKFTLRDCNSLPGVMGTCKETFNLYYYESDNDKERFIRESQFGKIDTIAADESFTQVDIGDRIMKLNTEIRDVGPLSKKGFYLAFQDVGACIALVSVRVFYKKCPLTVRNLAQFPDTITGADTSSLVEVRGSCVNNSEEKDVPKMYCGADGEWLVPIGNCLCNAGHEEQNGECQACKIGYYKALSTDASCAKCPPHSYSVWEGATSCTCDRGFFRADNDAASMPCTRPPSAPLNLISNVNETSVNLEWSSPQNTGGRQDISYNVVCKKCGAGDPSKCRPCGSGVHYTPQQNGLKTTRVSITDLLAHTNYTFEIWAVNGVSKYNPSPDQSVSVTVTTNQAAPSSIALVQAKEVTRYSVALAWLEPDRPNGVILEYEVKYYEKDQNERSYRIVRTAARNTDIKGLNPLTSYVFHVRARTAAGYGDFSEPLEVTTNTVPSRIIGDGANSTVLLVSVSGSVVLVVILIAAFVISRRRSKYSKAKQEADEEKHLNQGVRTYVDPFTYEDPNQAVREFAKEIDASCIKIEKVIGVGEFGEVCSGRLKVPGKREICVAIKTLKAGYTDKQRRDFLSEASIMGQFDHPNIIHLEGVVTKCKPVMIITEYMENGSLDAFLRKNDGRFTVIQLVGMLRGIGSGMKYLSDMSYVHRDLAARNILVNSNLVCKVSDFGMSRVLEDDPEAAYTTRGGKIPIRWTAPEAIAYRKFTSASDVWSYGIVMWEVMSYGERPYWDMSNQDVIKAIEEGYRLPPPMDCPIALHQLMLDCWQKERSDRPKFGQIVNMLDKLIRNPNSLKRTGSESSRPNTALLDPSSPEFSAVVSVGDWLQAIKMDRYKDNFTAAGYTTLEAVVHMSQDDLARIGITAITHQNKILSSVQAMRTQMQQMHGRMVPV
Chain of Kallikrein-7 (P49862 whole entry): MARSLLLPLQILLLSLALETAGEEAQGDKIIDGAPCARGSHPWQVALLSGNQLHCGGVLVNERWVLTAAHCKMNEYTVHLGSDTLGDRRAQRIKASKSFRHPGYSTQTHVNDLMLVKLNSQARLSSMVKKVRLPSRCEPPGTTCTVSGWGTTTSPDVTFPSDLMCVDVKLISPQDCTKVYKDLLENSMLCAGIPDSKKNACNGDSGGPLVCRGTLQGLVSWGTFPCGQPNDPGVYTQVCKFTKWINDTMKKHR
Chain of Caspase-6 (P55212 24-179 limits assumed): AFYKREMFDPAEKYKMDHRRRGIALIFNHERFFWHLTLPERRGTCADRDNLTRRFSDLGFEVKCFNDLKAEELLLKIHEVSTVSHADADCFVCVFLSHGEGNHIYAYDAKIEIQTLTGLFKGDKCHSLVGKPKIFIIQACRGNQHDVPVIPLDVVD
Chain of Caspase-6 (P55212 194-293 limits assumed): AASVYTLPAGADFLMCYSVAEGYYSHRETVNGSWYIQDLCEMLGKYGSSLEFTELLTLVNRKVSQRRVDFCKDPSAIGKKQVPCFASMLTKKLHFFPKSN
Chain of Cytochrome P450 3A4 (P08684 whole entry): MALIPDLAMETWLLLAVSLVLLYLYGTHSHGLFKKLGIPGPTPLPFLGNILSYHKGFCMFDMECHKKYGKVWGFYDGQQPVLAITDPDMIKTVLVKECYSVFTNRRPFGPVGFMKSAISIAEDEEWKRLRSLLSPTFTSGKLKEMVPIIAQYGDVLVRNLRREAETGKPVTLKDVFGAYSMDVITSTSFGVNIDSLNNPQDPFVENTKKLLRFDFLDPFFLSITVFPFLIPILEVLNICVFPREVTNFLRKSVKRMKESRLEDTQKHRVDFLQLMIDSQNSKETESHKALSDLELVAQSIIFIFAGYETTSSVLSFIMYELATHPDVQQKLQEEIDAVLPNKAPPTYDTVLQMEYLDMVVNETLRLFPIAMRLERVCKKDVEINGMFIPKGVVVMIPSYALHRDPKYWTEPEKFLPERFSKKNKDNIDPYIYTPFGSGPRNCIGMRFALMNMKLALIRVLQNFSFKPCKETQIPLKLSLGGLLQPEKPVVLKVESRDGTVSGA

CCCOc1ccc(-c2nn(-c3ccccc3)cc2/C=C2\SC(=S)N(C3CCS(=O)(=O)C3)C2=O)cc1 (stereo not given)
IC50 (Ephrin type-A receptor 4): 12 µM (active)

CN(CC1CCCN(CCc2cccc(C(F)(F)F)c2)C1)C(=O)c1ccco1 (stereo not given)
EC50 (cells [1]): 0.587 µM (active)
EC50 [2]: > 60 µM (not active)
EC50 [3]: < 0.1 µM (active)

CCOc1ccccc1NC(=O)Cc1cccs1
AC50 (Caspase-6): 16.7 µM (active)

CCOc1cc(N2CCOCC2)c(OCC)cc1NC(C)C(=O)N1CCN(CC)CC1 (stereo not given)
EC50 [4]: > 300 µM (inconclusive)
EC50 [5]: 82.7 µM (active)
AC50 (Caspase-6): 46.7 µM (active)

O=C(Nc1cccc2c1CCCC2)c1cc([N+](=O)[O-])ccc1Cl
IC50 (Ephrin type-A receptor 4): > 100 µM (not active)
EC50 [6]: 7.64 µM (active)
EC50 [7]: 6.84 µM (active)

Cc1cc(N=Nc2ccc(C)c(N=Nc3cc(C)c(N)cc3N)c2)c(N)cc1N
EC50 [8]: > 50 µM (active)
EC50 [9]: > 67.5 µM (inactive)
EC50 (cells [10]): > 67.5 µM (inactive)

CC(=O)Nc1cc2c3c(cccc3c1)-c1ccccc1-2
EC50 (Kallikrein-7): 8.84 µM (active)

COCCNC(=O)/C(C#N)=C/c1c(N2CCN(c3ccc(OC)cc3)CC2)nc2c(C)cccn2c1=O
EC50 (Kallikrein-7): > 69.5 µM (inactive)

COC(=O)c1cccc(C#CC(NP(=O)(c2ccccc2)c2ccccc2)c2ccccc2)c1 (stereo not given)
AC50 (Cytochrome P450 3A4): 12.6 µM (inconclusive)
CC50 [11]: > 40 µM (active)
IC50 [12]: > 100 µM (active)

CCOC(=O)c1ccc(NC(=O)CSc2nnc(COc3ccccc3OC)n2C)cc1
IC50 [13]: > 100 µM (active)
